Key:
SMARCA4 = SMARCA4 (Homo sapiens, UniProt P51532); test: HiBiT assay for protein degradation, Hela SMARCA4-HiBiT cells (A series); format: cell-based; set-up: fuse HiBiT to the carboxy terminus of SMARCA2 (Promega CS302365) or SMARCA4 (Promega CS3023225); host or cells: HeLa (CRISPR/Cas9 HiBiT knock-in); conditions: Hela SMARCA4-HiBiT cells, 24 hours treatment; for DC50: read-out: SMARC A4 Hela HiBit DC50; for Dmax: read-out: SMARC A4 Hela HiBit Dmax
In short: (§1)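 HeLa cells engineered by CRISPR/Cas9 to carry a HiBiT tag fused to the C-terminus of SMARCA4 (Promega CS3023225) were grown in DMEM supplemented with FBS and penicillin-streptomycin. After compound exposure, remaining SMARCA4 protein was quantified using the Nano-Glo® HiBiT Lytic Detection Assay (Promega N3050), and curves were fitted in GraphPad Prism.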

SMARCA2 = SMARCA2 (Homo sapiens, UniProt P51531); test: HiBiT assay for protein degradation, Hela SMARCA2-HiBiT cells (A series); format: cell-based; set-up: Hela cells were genetically modified via CRISPR/Cas9 to fuse HiBiT to the carboxy terminus of SMARCA2; host or cells: HeLa (CRISPR/Cas9 HiBiT knock-in); conditions: Hela SMARCA2-HiBiT cells, 24 hours treatment; for DC50: read-out: SMARC A2 Hela HiBit DC50; for Dmax: read-out: SMARC A2 Hela HiBit Dmax (%);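 on SMARC A2 Hela HiBit Dmax (%): 24 h compound treatment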
Sequence of SMARCA2 (P51531 whole entry): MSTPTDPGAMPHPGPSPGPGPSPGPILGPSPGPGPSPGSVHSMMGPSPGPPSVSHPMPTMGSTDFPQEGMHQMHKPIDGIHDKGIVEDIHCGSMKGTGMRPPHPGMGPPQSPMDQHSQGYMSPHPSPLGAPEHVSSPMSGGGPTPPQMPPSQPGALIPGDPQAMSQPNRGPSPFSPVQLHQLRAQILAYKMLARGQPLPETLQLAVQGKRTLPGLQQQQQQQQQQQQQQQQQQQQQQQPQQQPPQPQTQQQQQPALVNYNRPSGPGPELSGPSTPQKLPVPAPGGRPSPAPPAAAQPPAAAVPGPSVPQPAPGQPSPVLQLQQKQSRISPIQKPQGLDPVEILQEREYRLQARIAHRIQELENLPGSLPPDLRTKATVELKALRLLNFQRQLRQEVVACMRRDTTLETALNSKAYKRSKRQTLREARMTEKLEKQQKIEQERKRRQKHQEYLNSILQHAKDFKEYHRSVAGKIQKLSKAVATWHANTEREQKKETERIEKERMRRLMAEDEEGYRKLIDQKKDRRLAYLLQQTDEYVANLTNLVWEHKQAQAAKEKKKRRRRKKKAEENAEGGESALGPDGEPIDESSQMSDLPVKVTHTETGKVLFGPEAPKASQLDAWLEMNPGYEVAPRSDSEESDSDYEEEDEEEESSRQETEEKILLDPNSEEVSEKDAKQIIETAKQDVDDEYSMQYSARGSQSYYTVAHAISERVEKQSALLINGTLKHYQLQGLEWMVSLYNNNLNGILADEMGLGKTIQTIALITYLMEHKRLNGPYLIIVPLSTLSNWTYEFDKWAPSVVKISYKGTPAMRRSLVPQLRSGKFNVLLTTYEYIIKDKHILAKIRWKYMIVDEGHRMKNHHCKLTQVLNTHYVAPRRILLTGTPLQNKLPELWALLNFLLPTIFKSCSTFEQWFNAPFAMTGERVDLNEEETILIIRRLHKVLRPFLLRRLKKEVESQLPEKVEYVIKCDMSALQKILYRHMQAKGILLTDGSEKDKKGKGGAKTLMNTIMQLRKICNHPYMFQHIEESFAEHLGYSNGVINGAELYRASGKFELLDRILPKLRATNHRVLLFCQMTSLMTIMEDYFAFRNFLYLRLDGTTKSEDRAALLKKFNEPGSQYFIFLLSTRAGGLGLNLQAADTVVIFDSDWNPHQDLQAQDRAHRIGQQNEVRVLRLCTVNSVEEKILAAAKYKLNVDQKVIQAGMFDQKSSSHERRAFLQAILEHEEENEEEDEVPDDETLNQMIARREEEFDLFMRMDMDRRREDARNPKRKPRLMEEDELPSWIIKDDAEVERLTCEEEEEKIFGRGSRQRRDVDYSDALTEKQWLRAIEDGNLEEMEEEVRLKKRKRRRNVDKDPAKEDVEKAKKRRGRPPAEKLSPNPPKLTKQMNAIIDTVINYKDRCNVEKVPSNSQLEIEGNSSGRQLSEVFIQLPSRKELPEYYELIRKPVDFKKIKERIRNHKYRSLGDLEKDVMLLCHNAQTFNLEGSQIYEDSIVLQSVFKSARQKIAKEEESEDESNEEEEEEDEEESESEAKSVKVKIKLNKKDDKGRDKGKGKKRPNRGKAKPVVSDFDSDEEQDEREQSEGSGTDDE
In short: as §1, with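 “SMARCA2” for “SMARCA4”, “CS302365)” for “CS3023225)”, “treatment,” for “compound exposure,”, “with” for “using”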

Sequence of SMARCA4 (P51532 whole entry, the tested form may be a part): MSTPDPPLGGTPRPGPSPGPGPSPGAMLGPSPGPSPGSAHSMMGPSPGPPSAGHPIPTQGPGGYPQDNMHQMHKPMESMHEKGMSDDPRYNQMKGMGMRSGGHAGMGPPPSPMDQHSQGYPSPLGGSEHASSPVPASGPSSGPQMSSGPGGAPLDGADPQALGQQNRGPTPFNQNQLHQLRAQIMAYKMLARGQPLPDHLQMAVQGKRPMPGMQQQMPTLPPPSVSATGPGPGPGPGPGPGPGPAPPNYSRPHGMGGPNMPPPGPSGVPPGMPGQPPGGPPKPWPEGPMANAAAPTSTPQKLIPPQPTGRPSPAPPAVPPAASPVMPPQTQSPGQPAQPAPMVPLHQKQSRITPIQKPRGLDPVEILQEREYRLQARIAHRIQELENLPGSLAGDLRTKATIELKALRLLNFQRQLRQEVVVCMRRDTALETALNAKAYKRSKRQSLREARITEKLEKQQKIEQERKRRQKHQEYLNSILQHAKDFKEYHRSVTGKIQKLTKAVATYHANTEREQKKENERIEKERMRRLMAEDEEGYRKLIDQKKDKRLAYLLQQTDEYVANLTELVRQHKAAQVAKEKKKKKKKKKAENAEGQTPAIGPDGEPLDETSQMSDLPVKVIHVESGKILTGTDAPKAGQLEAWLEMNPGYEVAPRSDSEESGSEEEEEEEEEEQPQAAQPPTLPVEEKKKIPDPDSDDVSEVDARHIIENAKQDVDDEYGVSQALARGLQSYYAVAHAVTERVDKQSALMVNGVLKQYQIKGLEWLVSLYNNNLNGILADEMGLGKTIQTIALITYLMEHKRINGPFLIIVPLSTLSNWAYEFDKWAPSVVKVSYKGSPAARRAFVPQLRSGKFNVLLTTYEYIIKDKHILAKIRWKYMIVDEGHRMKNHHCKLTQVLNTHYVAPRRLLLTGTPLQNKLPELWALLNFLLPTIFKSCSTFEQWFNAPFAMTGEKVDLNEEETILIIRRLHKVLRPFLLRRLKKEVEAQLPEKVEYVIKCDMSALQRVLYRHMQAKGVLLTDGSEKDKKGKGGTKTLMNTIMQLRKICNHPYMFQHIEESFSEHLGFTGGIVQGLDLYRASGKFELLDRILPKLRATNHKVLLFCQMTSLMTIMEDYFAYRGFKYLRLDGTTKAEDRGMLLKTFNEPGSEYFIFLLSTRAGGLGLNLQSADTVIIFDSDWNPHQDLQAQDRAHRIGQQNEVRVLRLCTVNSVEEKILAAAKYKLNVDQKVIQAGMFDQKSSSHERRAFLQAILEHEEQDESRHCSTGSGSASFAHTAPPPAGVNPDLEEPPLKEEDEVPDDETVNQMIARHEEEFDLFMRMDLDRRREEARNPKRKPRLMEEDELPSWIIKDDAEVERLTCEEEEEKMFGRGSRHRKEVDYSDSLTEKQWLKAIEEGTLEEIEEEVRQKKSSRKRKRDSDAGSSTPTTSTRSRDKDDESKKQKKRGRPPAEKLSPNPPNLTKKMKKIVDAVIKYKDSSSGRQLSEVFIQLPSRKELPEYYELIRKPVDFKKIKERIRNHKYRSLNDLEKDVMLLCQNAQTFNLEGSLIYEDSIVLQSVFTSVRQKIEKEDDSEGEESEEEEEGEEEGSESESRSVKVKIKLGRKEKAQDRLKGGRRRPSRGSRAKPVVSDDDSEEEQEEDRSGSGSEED

Row | DC50 (SMARCA4) | Dmax (SMARCA4) | DC50 (SMARCA2) | Dmax (SMARCA2) | SMILES
1 | > 1000 nM | < 50% | 10 to 100 nM | 70 to 90% | Cc1ncsc1-c1ccc([C@H](CN2CCOCC2)NC(=O)[C@@H]2C[C@@H](O)CN2C(=O)[C@H](C2CCCCC2)n2cc([C@H]3CC[C@H](CN4CCC[C@H](c5ccc6c(c5)-n5c(nc(=O)c7c(Cl)cccc75)C65CCCCC5)C4)CC3)nn2)cc1 [Compound A131, (2S,4R)-1-((2S)-2-(4-((1r,4S)-4-((3-(4′-chloro-5′-oxo-5′H-spiro[cyclohexane-1,7′-indolo[1,2-a]quinazolin]-10′-yl)piperidin-1-yl)methyl)cyclohexyl)-1H-1,2,3-triazol-1-yl)-2-cyclohexylacetyl)-4-hydroxy-N—((R)-1-(4-(4-methylthiazol-5-yl)phenyl)-2-morpholinoethyl)pyrrolidine-2-carboxamide]
2 | > 1000 nM | < 50% | < 10 nM | > 90% | Cc1ncsc1-c1ccc([C@H](C)NC(=O)[C@@H]2C[C@@H](O)CN2C(=O)[C@H](C2CCN(C(=O)[C@H]3CC[C@H](CN4CCC(c5ccc6c(c5)-n5c(nc(=O)c7c(Br)cccc75)C65CCCCC5)CC4)CC3)CC2)n2cc(C3CC3)nn2)cc1 [Compound A132, (2S,4R)-1-((S)-2-(1-((1r,4S)-4-((4-(4′-bromo-5′-oxo-5′H-spiro[cyclohexane-1,7′-indolo[1,2-a]quinazolin]-10′-yl)piperidin-1-yl)methyl)cyclohexane-1-carbonyl)piperidin-4-yl)-2-(4-cyclopropyl-1H-1,2,3-triazol-1-yl)acetyl)-4-hydroxy-N—((S)-1-(4-(4-methylthiazol-5-yl)phenyl)ethyl)pyrrolidine-2-carboxamide]
3 | > 1000 nM | < 50% | 100 to 1000 nM | 70 to 90% | CC1(C)c2ccc(C3CCN(C[C@H]4CC[C@H](c5cn([C@H](C(=O)N6C[C@H](O)C[C@H]6C(=O)N[C@@H](CN6CCOCC6)c6ccc(-c7scnc7C(=O)O)cc6)C6CCOCC6)nn5)CC4)CC3)cc2-n2c1nc(=O)c1c(Cl)cccc12 [Compound A133, 5-(4-((R)-1-((2S,4R)-1-((S)-2-(4-((1r,4S)-4-((4-(4-chloro-7,7-dimethyl-5-oxo-5,7-dihydroindolo[1,2-a]quinazolin-10-yl)piperidin-1-yl)methyl)cyclohexyl)-1H-1,2,3-triazol-1-yl)-2-(tetrahydro-2H-pyran-4-yl)acetyl)-4-hydroxypyrrolidine-2-carboxamido)-2-morpholinoethyl)phenyl)thiazole-4-carboxylic acid]
4 | > 1000 nM | < 50% | 100 to 1000 nM | 70 to 90% | O=C(O)c1ncsc1-c1ccc([C@H](CN2CCOCC2)NC(=O)[C@@H]2C[C@@H](O)CN2C(=O)[C@H](C2CCOCC2)n2cc([C@H]3CC[C@H](CN4CCC(c5ccc6c(c5)-n5c(nc(=O)c7c(Cl)cccc75)C65CCCCC5)CC4)CC3)nn2)cc1 [Compound A134, 5-(4-((R)-1-((2S,4R)-1-((S)-2-(4-((1r,4S)-4-((4-(4′-chloro-5′-oxo-5′H-spiro[cyclohexane-1,7′-indolo[1,2-a]quinazolin]-10′-yl)piperidin-1-yl)methyl)cyclohexyl)-1H-1,2,3-triazol-1-yl)-2-(tetrahydro-2H-pyran-4-yl)acetyl)-4-hydroxypyrrolidine-2-carboxamido)-2-morpholinoethyl)phenyl)thiazole-4-carboxylic acid]
5 | < 10 nM | > 90% | < 10 nM | > 90% | Cc1ncsc1-c1ccc([C@@H](NC(=O)[C@@H]2C[C@@H](O)CN2C(=O)[C@@H](n2cc(C3CC3)nn2)C(C)(C)C)C(=O)N2CCC(c3ccc4c(c3)-n3c(nc(=O)c5c(Br)cccc53)C43CCCCC3)CC2)cc1 [Compound A135, (2S,4R)—N—((R)-2-(4-(4′-bromo-5′-oxo-5′H-spiro[cyclohexane-1,7′-indolo[1,2-a]quinazolin]-10′-yl)piperidin-1-yl)-1-(4-(4-methylthiazol-5-yl)phenyl)-2-oxoethyl)-1-((S)-2-(4-cyclopropyl-1H-1,2,3-triazol-1-yl)-3,3-dimethylbutanoyl)-4-hydroxypyrrolidine-2-carboxamide]
6 | < 10 nM | > 90% | < 10 nM | > 90% | Cc1ncsc1-c1ccc([C@@H](NC(=O)[C@@H]2C[C@@H](O)CN2C(=O)[C@@H](n2cc(C3CC3)nn2)C(C)(C)C)C(=O)N2CCC(CN3CCC(c4ccc5c(c4)-n4c(nc(=O)c6c(Br)cccc64)C54CCCCC4)CC3)CC2)cc1 [Compound A136, (2S,4R)—N—((R)-2-(4-((4-(4′-bromo-5′-oxo-5′H-spiro[cyclohexane-1,7′-indolo[1,2-a]quinazolin]-10′-yl)piperidin-1-yl)methyl)piperidin-1-yl)-1-(4-(4-methylthiazol-5-yl)phenyl)-2-oxoethyl)-1-((S)-2-(4-cyclopropyl-1H-1,2,3-triazol-1-yl)-3,3-dimethylbutanoyl)-4-hydroxypyrrolidine-2-carboxamide]
7 | < 10 nM | 70 to 90% | < 10 nM | > 90% | Cc1ncsc1-c1ccc([C@@H](NC(=O)[C@@H]2C[C@@H](O)CN2C(=O)[C@@H](n2cc(C3CC3)nn2)C(C)(C)C)C(=O)N2CCC3(CCC(CN4CCC(c5ccc6c(c5)-n5c(nc(=O)c7c(Br)cccc75)C65CCCCC5)CC4)CC3)CC2)cc1 [Compound A137, (2S,4R)—N—((R)-2-(9-((4-(4′-bromo-5′-oxo-5′H-spiro[cyclohexane-1,7′-indolo[1,2-a]quinazolin]-10′-yl)piperidin-1-yl)methyl)-3-azaspiro[5.5]undecan-3-yl)-1-(4-(4-methylthiazol-5-yl)phenyl)-2-oxoethyl)-1-((S)-2-(4-cyclopropyl-1H-1,2,3-triazol-1-yl)-3,3-dimethylbutanoyl)-4-hydroxypyrrolidine-2-carboxamide]
8 | < 10 nM | > 90% | < 10 nM | > 90% | Cc1ncsc1-c1ccc([C@@H](NC(=O)[C@@H]2C[C@@H](O)CN2C(=O)[C@@H](n2cc(C3CC3)nn2)C(C)(C)C)C(=O)N2CCC(N3CCC(c4ccc5c(c4)-n4c(nc(=O)c6c(Br)cccc64)C54CCCCC4)CC3)CC2)cc1 [Compound A138, (2S,4R)—N—((R)-2-(4-(4′-bromo-5′-oxo-5′H-spiro[cyclohexane-1,7′-indolo[1,2-a]quinazolin]-10′-yl)-[1,4′-bipiperidin]-1′-yl)-1-(4-(4-methylthiazol-5-yl)phenyl)-2-oxoethyl)-1-((S)-2-(4-cyclopropyl-1H-1,2,3-triazol-1-yl)-3,3-dimethylbutanoyl)-4-hydroxypyrrolidine-2-carboxamide]
9 | < 10 nM | 70 to 90% | < 10 nM | > 90% | Cc1ncsc1-c1ccc([C@@H](NC(=O)[C@@H]2C[C@@H](O)CN2C(=O)[C@@H](n2cc(C3CC3)nn2)C(C)(C)C)C(=O)N2CCC3(CCC(N4CCC(c5ccc6c(c5)-n5c(nc(=O)c7c(Br)cccc75)C65CCCCC5)CC4)CC3)CC2)cc1 [Compound A139, (2S,4R)—N—((R)-2-(9-(4-(4′-bromo-5′-oxo-5′H-spiro[cyclohexane-1,7′-indolo[1,2-a]quinazolin]-10′-yl)piperidin-1-yl)-3-azaspiro[5.5]undecan-3-yl)-1-(4-(4-methylthiazol-5-yl)phenyl)-2-oxoethyl)-1-((S)-2-(4-cyclopropyl-1H-1,2,3-triazol-1-yl)-3,3-dimethylbutanoyl)-4-hydroxypyrrolidine-2-carboxamide]

From patent US20260092071A1, “COMPOUNDS AND COMPOSITIONS AS SMARCA2/4 DEGRADERS AND USES THEREOF” (REGENTS OF THE UNIVERSITY OF MICHIGAN, priority 2022, published 2026)
